Key:
[1] = system: Lasius niger; test: Honey bait placed near an active anthill, population destruction; format: in vivo; details: 10 g of a 0.05% dispersion in honey
From the text: A watch glass containing 10 g of a 0.05% dispersion of compound A in honey is placed 20 cm from the entrance to an active anthill. The ants are of the species Lasius niger, for which the fraction of workers whose function is to collect food is in the region of 10% of the total population. The total population is estimated by a count carried out on an untreated anthill, referred to as the control, containing 10,000 individuals.
During the first 2 days, it is observed that the ants head in a column from the anthill to the watch glass, stop to take up the dispersion and then return to the anthill.
An update on the latter is then obtained by excavation.

[2] = system: Blatella Germanica cockroaches; test: Bait pellet test on cockroaches in boxes, with later introduction of healthy cockroaches; format: in vivo; details: 2.7 g bait pellet with 1.35 mg active, bait removed after 8 hours and 15 new healthy cockroaches added
Method: Tests are carried out on Blatella Germanica cockroaches in boxes 36×24×14 cm in size. These boxes comprise a source of water, a shelter consisting of piled pieces of cardboard, and additional food consisting of biscuit pieces.
15 cockroaches are introduced into the box without bait.
After 24 hours, a 2.7 g pellet of bait with 1.35 mg of product of formula (I) is introduced into the box.
After a further 8 hours, the bait and the additional food are removed and 15 new healthy cockroaches are introduced.

**Q.** Which destruction rate ([1]; 20 cm from anthill entrance, excavation after 15 days, total population about 10,000 individuals) does the source give for `N#Cc1nn(-c2c(Cl)cc(C(F)(F)F)cc2Cl)c(N)c1[S+]([O-])C(F)(F)F` (centres unmarked) [compound A, 5-amino-3-cyano-I-[2,6-dichloro4-(trifluoromethyl)phenyl]-4[(trifluoromethyl)sulfinyl]-IH-pyrazole] here?
**A.** greater than 99%

**Q.** What about the “surface activity around the anthill” value ([1]; after 15 days) of the same compound?
**A.** no further surface activity

**Q.** What about the “destruction of larvae in the anthill” value ([1]; excavation after 15 days) of the same compound?
**A.** all the larvae have been destroyed

**Q.** What about the cockroaches dead ([2]; 64 hours after introduction of the bait) of the same compound?
**A.** 98.6%

**Q.** And the cockroaches dead ([2]; after 88 hours)?
**A.** 100%

From patent US20030228343A1, “Method for controlling a population of social insects using 1-arylpyrazoles or 1-heteroarylpyrazoles” (priority 1995, published 2003)
